Laboratory results: patent publication US6615842B1, “Methods for removing nucleophilic toxins from tobacco smoke” (Cerami Consulting Corp., priority 1998, dated 2003)

Assay: Removal of tar from tobacco smoke measured colorimetrically
Settings: 250 mg portions of compound as filter; smoke from one cigarette drawn through 3 ml water; read at 405 nm; compared with control cigarette
Procedure: The smoke from one cigarette was drawn through the filter material and then through 3 mls of distilled water using a water-pipe smoking device which was constructed from a 25 ml glass Erlenmeyer flask attached to a vacuum source with an air flow rate of approximately 35 ml/min. Three 100 microliter aliquots were removed from each flask, placed into ELISA plate wells and read in an ELISA plate reader at 405 nm. The percentage or tar removed is based on a comparison between the cigarette comprising the filter containing the test agent and an appropriate control cigarette.
The smoke from 1 of each type of filter cigarette was then drawn through 3 mls of distilled water using a water-pipe smoking device which was constructed from a small (25 ml) glass Erlenmeyer flask attached to a vacuum source with an air flow rate of approximately 35 ml/min. Three 100 microliter aliquots were removed from each flask, placed into ELISA plated wells and read in an ELISA plate reader at 405 nm.

Row | Compound | % TAR REMOVAL [%]
1 | CC1(C)CC(=O)CC(=O)C1 [(5,5-dimethyl-1,3-cyclohexanedione, 5,5-dimethyl-1,3-cyclohexanedione] | 26
2 | CCCCCCCCCC=CCC1CC(=O)OC1=O (stereo not drawn) [2-Dodecen-1-ylsuccinic anhydride] | 98.2
3 | O=Cc1ccccc1C=O [O-phthaldialdehyde] | 84
4 | CC(C)(C)OC(=O)N[C@@H](CCC(=O)ON1C(=O)CCC1=O)C(=O)OCc1ccccc1 [N-α-t-BOC-L-glutamic-α-benzyl ester-γ-N-hydroxysuccinimide ester] | 96.7
5 | O=CC(=O)c1ccccc1 [Phenylglyoxal] | 53
6 | CC(C)(C)OC(=O)NCCCCCC(=O)ON1C(=O)CCC1=O [BOC-ε-aminocaproic acid-N-hydroxysuccinimide ester] | 74
7 | O=C1OC(=O)C2C3C=CC(C12)C1C(=O)OC(=O)C31 (stereo not drawn) [Bicyclo(2,2,2)oct-7-ene-2,3,5,6-tetracarboxylic dianhydride] | 98.2
8 | O=C1c2ccccc2C(=O)C1(O)C1(O)C(=O)c2ccccc2C1=O [Hydrindantin] | 95
9 | O=C1CN(CCN2CC(=O)OC(=O)C2)CC(=O)O1 [Ethylenediaminetetraacetic dianhydride] | 98.2
10 | O=C1c2ccccc2C(=O)C1(O)O [Ninhydrin] | 83
11 | C[C@H](NC(=O)OC(C)(C)C)C(=O)ON1C(=O)CCC1=O [N-α-t-BOC-L-alanine-N-hydroxysuccinimide ester] | 25
12 | CC(=O)O[C@H]1C(=O)OC(=O)[C@@H]1OC(C)=O [(+)-Diacetyl-1-tartaric anhydride] | 32.1
